The results in this text go back to patent US20130097725A1, “SOYBEAN NODULATION FACTOR RECEPTOR PROTEINS, ENCODING NUCLEIC ACIDS AND USES THEREFOR” (The University of Queensland, priority 2005, published 2013).

Assay [1] has as its system soybean plants (nod49, nod139, Bragg). The assay is described as follows: Interaction of B. japonicum inoculum titer and Nod Factor on nodule number. Particulars: Plus NF 10^−8 M, 35 days. In kind it is in vivo, Glycine max.
Assay [2] shares this test system. The assay is described as above. In kind it is in vivo, Glycine max. Particulars: for nodule number: nod49, Plus NF 10^−8 M, 35 days. The source says:
We tested this phenomenon by inoculating nod49 plants with different titers of B. japonicum CB1809 and observed increased partial nodulation success per plant with elevated rhizobial concentration. […] Since infection thread formation is essential for the progression of early CCDs (FIG. 4B), mutations in GmNFR1α result in non-nodulation. Thus GmNFR1α mutants, when exposed to high NF levels, form nodules via normal infection, showing that GmNFR1β suffices for all early nodule ontogeny steps.

Marks after values point to notes of the source that are not given here.

For NodV-MeFuc [NF], the nodule number in assay [1] (Bragg, B. japonicum CB1809 10^3 cfu·ml^−1) was 82.5 ± 5.0 ^d; in assay [1] (Bragg, B. japonicum CB1809 10^7 cfu·ml^−1), 101.4 ± 8.5 ^e; in assay [1] (Bragg, B. japonicum CB1809 10^10 cfu·ml^−1) it was 104.2 ± 6.9 ^e; in assay [1] (nod139, B. japonicum CB1809 10^3 cfu·ml^−1), 0.0 ^a; in assay [1] (nod139, B. japonicum CB1809 10^7 cfu·ml^−1) it was 0.0 ^a; in assay [1] (nod139, B. japonicum CB1809 10^10 cfu·ml^−1), 0.2 ± 0.2 ^a. The nodule number in assay [2] (B. japonicum CB1809 10^3 cfu·ml^−1) is given as 0.0 ^a; in assay [2] (B. japonicum CB1809 10^7 cfu·ml^−1) it was 0.7 ± 0.2 ^b; in assay [2] (B. japonicum CB1809 10^10 cfu·ml^−1), 2.3 ± 0.4 ^c. Moreover, the “nodulation on addition of NF to the nutrient medium” value in assay [2] (nod49 mutant plants, NF 10 nM) is reported as “significantly increased”.
